Laboratory results published in patent US20140323300A1, “HERBICIDAL COMPOUNDS” (SYNGENTA LIMITED, priority 2011, published 2014).

What was measured:
[1] = tested on: Ipomoea hederacea (IPOHE); test: Pre-emergence glasshouse herbicide test; assay type: in vivo; conditions: pre-emergence (sprayed after one day cultivation), 1000 g/h, evaluated after 13 days, five point scale
Method in brief: (§1)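 Damage was rated 13 days after treatment on a five-point scale (1 = 0–19%, 5 = 80–100%). The compound, formulated in 50:50 acetone/water with 0.5% Tween 20, was sprayed at 1000 g/h on pots one day (pre) or 8 days (post) after sowing, kept in a glasshouse at 24/16° C, 14 h light, 65% humidity.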

Setaria faberi (SETFA) [2] = test: Pre-emergence glasshouse herbicide test; assay type: in vivo; conditions: pre-emergence (sprayed after one day cultivation), 1000 g/h, evaluated after 13 days, five point scale
Method in brief: as §1

Solanum nigrum (SOLNI) [3] = test: Pre-emergence glasshouse herbicide test; assay type: in vivo; conditions: pre-emergence (sprayed after one day cultivation), 1000 g/h, evaluated after 13 days, five point scale
Method in brief: as §1

[4] = tested on: Alopecurus myosuroides (ALOMY); test: Pre-emergence glasshouse herbicide test; assay type: in vivo; conditions: pre-emergence (sprayed after one day cultivation), 1000 g/h, evaluated after 13 days, five point scale
Method in brief: as §1

[5] = tested on: Amaranthus retoflexus (AMARE); test: Pre-emergence glasshouse herbicide test; assay type: in vivo; conditions: pre-emergence (sprayed after one day cultivation), 1000 g/h, evaluated after 13 days, five point scale
Method in brief: as §1

[6] = tested on: Echinochloa crus-galli (ECHCG); test: Pre-emergence glasshouse herbicide test; assay type: in vivo; conditions: pre-emergence (sprayed after one day cultivation), 1000 g/h, evaluated after 13 days, five point scale
Method in brief: as §1

[7] = tested on: Ipomoea hederacea (IPOHE); test: Post-emergence glasshouse herbicide test; assay type: in vivo; conditions: post-emergence (sprayed after 8 days cultivation), 1000 g/h, evaluated after 13 days, five point scale
Method in brief: as §1

Setaria faberi (SETFA) [8] = test: Post-emergence glasshouse herbicide test; assay type: in vivo; conditions: post-emergence (sprayed after 8 days cultivation), 1000 g/h, evaluated after 13 days, five point scale
Method in brief: as §1

Solanum nigrum (SOLNI) [9] = test: Post-emergence glasshouse herbicide test; assay type: in vivo; conditions: post-emergence (sprayed after 8 days cultivation), 1000 g/h, evaluated after 13 days, five point scale
Method in brief: as §1

[10] = tested on: Alopecurus myosuroides (ALOMY); test: Post-emergence glasshouse herbicide test; assay type: in vivo; conditions: post-emergence (sprayed after 8 days cultivation), 1000 g/h, evaluated after 13 days, five point scale
Method in brief: as §1

[11] = tested on: Amaranthus retoflexus (AMARE); test: Post-emergence glasshouse herbicide test; assay type: in vivo; conditions: post-emergence (sprayed after 8 days cultivation), 1000 g/h, evaluated after 13 days, five point scale
Method in brief: as §1

[12] = tested on: Echinochloa crus-galli (ECHCG); test: Post-emergence glasshouse herbicide test; assay type: in vivo; conditions: post-emergence (sprayed after 8 days cultivation), 1000 g/h, evaluated after 13 days, five point scale
Method in brief: as §1

Structure (SMILES)	percentage damage caused to the plant, PRE Application IPOHE [1]	percentage damage caused to the plant, PRE Application SETFA (Setaria faberi (SETFA) [2])	percentage damage caused to the plant, PRE Application SOLNI (Solanum nigrum (SOLNI) [3])	percentage damage caused to the plant, PRE Application ALOMY [4]	percentage damage caused to the plant, PRE Application AMARE [5]	percentage damage caused to the plant, PRE Application ECHCG [6]	percentage damage caused to the plant, POST Application IPOHE [7]	percentage damage caused to the plant, POST Application SETFA (Setaria faberi (SETFA) [8])	percentage damage caused to the plant, POST Application SOLNI (Solanum nigrum (SOLNI) [9])	percentage damage caused to the plant, POST Application ALOMY [10]	percentage damage caused to the plant, POST Application AMARE [11]	percentage damage caused to the plant, POST Application ECHCG [12]	melting point [°C]
C=C(C)C1C=NN(c2ccc(C(F)(F)F)cc2S(C)(=O)=O)C(=O)C1=O (stereo not shown) [Compound 1.039, 4-Isopropenyl-1-[2-methylsulfonyl-4-(trifluoromethyl)phenyl]-4H-pyridazine-5,6-dione]	5 (5=80-100%)	5 (5=80-100%)	5 (5=80-100%)	5 (5=80-100%)	5 (5=80-100%)	5 (5=80-100%)	5 (5=80-100%)	5 (5=80-100%)	5 (5=80-100%)	5 (5=80-100%)	5 (5=80-100%)	5 (5=80-100%)	144 to 147
CCc1cnn(-c2ccc(C(F)(F)F)cc2S(C)(=O)=O)c(=O)c1O [Compound 1.045]	5 (5=80-100%)	5 (5=80-100%)	5 (5=80-100%)	5 (5=80-100%)	5 (5=80-100%)	5 (5=80-100%)	5 (5=80-100%)	5 (5=80-100%)	5 (5=80-100%)	5 (5=80-100%)	5 (5=80-100%)	5 (5=80-100%)	
CS(=O)(=O)c1cc(Cl)ccc1-n1ncc(S(C)(=O)=O)c(O)c1=O [Compound 1.047]	2 (2=20-39%)	1 (1=0-19%)	2 (2=20-39%)	1 (1=0-19%)	2 (2=20-39%)	1 (1=0-19%)	2 (2=20-39%)	1 (1=0-19%)	2 (2=20-39%)	1 (1=0-19%)	2 (2=20-39%)	1 (1=0-19%)	
CSc1cnn(-c2ccc(Cl)cc2S(C)(=O)=O)c(=O)c1O [Compound 1.048]	3 (3=40-59%)	2 (2=20-39%)	4 (4=60-79%)	1 (1=0-19%)	4 (4=60-79%)	3 (3=40-59%)	3 (3=40-59%)	2 (2=20-39%)	4 (4=60-79%)	1 (1=0-19%)	4 (4=60-79%)	3 (3=40-59%)	
C=Cc1cnn(-c2ccc(C(F)(F)F)cc2S(C)(=O)=O)c(=O)c1O [Compound 1.053]	5 (5=80-100%)	5 (5=80-100%)	5 (5=80-100%)	4 (4=60-79%)	5 (5=80-100%)	5 (5=80-100%)	5 (5=80-100%)	5 (5=80-100%)	5 (5=80-100%)	4 (4=60-79%)	5 (5=80-100%)	5 (5=80-100%)	
